How the values were obtained:
Format in all cases: cell-based, human
[1] = system: αiib:β3 integrin; assay: engraftment: HCFA of CD34+ SPC attached to ABME formed via αiib:β3 integrin signaling; conditions: FIG. 7
Protocol: The mesenchyme cells (5×10^4 cells per well in a 24 well dish) were grown in IMDM plus 20% fetal bovine serum until they were nearly confluent. The medium was removed and was washed 2× with PBS. ABME was prepared by using a chemical hematomodulator [Biotin-Ser-Gly-Ser-Gly-Cys*-Asn-Pro-Arg-Gly-Asp (Tyr-OMe)Arg-Cys*Lys (cyclised between C*-C*), 10 microgram ml^−1, 18 hours] that selectively activated αiib:β3 integrin signaling in the mesenchyme cells. The ABME formed was washed 2× with PBS and was covered with 0.2 ml of a suspension of CD34^+ SPC cells (10^5 ml−1) for 1 hour, in the presence or absence of another peptide [1-Adamantaneacetyl-Cys*Gly-Arg-Gly-Asp-Ser-Pro-C(Cyclised between Cys*-Cys*)]which inhibited the interactions of αiib:β3 integrin. At the end of incubation, the cells were washed 2× with PBS and were processed for hematopoietic colony formation assays (HCFA). […] More specifically, the quantities of hematopoietic growth factors used routinely in HCFA were, 2 International Units per milliliter (2 I.U.ml^−1) of Erythropoietin (EPO), 50 nanogram per milliliter (50 ng.ml^−1) of Stem Cell Factor (SCF) and 20 nanogram per milliliter (20 ng/ml^−1) each of Granulocyte-Macrophage-Colony Stimulating Factor (GM-CSF), Granulocyte-Colony Stimulating Factor (G-CSF), Interleukin-1 beta (IL-1β), Interleukin-3 (IL-3) and Interleukin-6 (IL-6). […]

[2] = system: SPC; assay: priming of SPC before contact with ABME, colony formation; conditions: for colony/blood cell formation after priming SPC: SPC primed with agent
Excerpt: Experiments were directed to determine if the ABME had properties that promoted cell survival.

[3] = system: CD34+ SPC; assay: lineage commitment: HCFA with CD34+ SPC, count of mature blood cells after 14 days
Protocol: The mesenchyme cells (5×10^4 cells per well in a 24 well dish) were grown in IMDM plus 20% fetal bovine serum until they were nearly confluent. The medium was removed and was washed 2× with PBS. Two different ABME were prepared by using two biological hematomodulators (TGFβ1 10 ngml^−1, bFGF 10 ngml^−1, 18 hours) separately. The ABME formed was washed 2× with PBS and was covered with 0.2 ml of a suspension of CD34^+ SPC cells (10^5 ml−1) for 1 hour at 37° C. All the cells of the dish were then harvested after washing and were used in a HCFA. After 14 days, the mature blood cells formed were harvested and an aliquot of the suspension was examined under the microscope to identify and count the mature lymphoid and myeloid cells.
The mesenchyme cells (5×10^4 cells per well in a 24 well dish) were grown in IMDM plus 20% fetal bovine serum until they were nearly confluent. The medium was removed and was washed 2× with PBS. The cells in one well were treated with a DiBromo derivative of the Calcium ion chelator BAPTA (5 micromolar) for one hour whereas another well received only the medium without the BAPTA derivative. After 1 hour of incubation at 37° C., TGFβ1 was added to both the wells (10 ng ml−1) and the incubation was continued for a further period of 18 hours. The ABME formed in both wells were washed and were used for HCFA using CD34^+ SPC. After 14 days the mature blood cells were harvested and were quantitated for the cells of erythroid and myeloid lineage.

[4] = system: mesenchymal cells (ABME) with MNC; assay: quantitative hematopoietic colony formation assay for ABME (HCFA-ABME): MNC with hematomodulator-contacted mesenchymal cells
Excerpt: As described above, the medium for blood cell formation employed may be IMDM with 20% serum and supplemented with interleukins such as IL-lbeta, IL-3, and IL-6, stem cell factor, lineage specific growth factors such as erythropoietin and GM-CSF, G-CSF; and methyl cellulose to the extent of 0.8%, the culture is maintained for 12-14 days under the culture conditions whereby blood cell colonies grow well or form colonies and clearly the growth is visible/distinguishable for further analysis and use. An assay designed in a similar manner to assess quantitative nature of ABME function is referred hereafter as ‘quantitative hematopoietic colony formation assay for ABME (HCFA-ABME)’.
Several experiments were conducted to determine that mesenchymal cells exert direct influence on SPC cell-fate. In one set of experiments, mesenchymal cells were cultured separately and nearly 50,000 of them were exposed to a typical HCFA medium comprising 0.8% methyl cellulose in IMDM and 20-30% serum along with excess amounts of various purified and human specific cytokines and hematopoietic colony stimulating growth factors (from Stem cell Technologies, […], Canada). More specifically, the quantities of hematopoietic growth factors used routinely in HCFA were, 2 International Units per milliliter (2 I.U.ml^−1) of Erythropietin (EPO), 50 nanogram per milliliter (50 ng.ml^−1) of Stem Cell Factor (SCF) and 20 nanogram per milliliter (20 ng/ml^−1) each of Granulocyte-Macrophage-Colony Stimulating Factor (GM-CSF), Granulocyte-Colony Stimulating Factor (G-CSF), Interleukin-1 beta (IL-1β), Interleukin-3 (IL-3) and Interleukin-6 (IL-6) {all growth factors and cytokines are from Stem cell Technologies, Vancouver, Canada,}.
In another set of experiments, 50,000 of the same mesenchymal cells were first mixed with nearly 100,000 MNC, held at 37° C. for at least 30 minutes and were processed for colony formation assays. In several experiments, a consistent improvement in the number and cellularity of the hematopoietic colonies was seen when both these two cell types were mixed compared to a reference where only the cells of MNC were used. The increase was ranging from 1.5 to 10-fold. Thus, the enhancement in colony formation obtained with the use of only mesenchymal cells was highly variable and unpredictable among samples. The fact that hematopoietic colonies formed in increased numbers and cellularity only when MNC and mesenchymal cells were processed together is evidence of a new environment created by the mesenchymal cells in which the SPC present in the MNC were more productive. This increase results in activation of the pre-existing but quiescent SPC, formation of new SPC due to self-renewal, and a combination of both factors.
In order to create ABME, the mesenchymal cells were covered with the contacting medium comprising hematomodulators contained in IMDM with 20% human serum or fetal bovine serum for a desirable period (range 8-24 hours) and removed. The contacted cells were then washed 2 times using the contacting medium (IMDM +20% FCS) without hematomodulators and used as such or after harvesting the mesenchymal cells, which now represent the composition of in vitro ABME. Optionally, ABME cells can be configured on supports that will distribute them in two or more dimensions for better results. A requisite number of MNC/SPC and cells of the ABME are taken and kept together for a suitable duration (range 0.5 to 6 hours) after which they were processed for in vitro hematopoietic colony formation assays or hematopoiesis.
Thus, the inventors undertook 4 sets of experiments: (a) wherein mononuclear cells were exposed to mesenchymal cells without any treatment; (b) wherein MNC were exposed to mesenchymal cells contacted with a biological agent [TGFβ1] […]

## 1-Adamantaneacetyl-Cys*Gly-Arg-Gly-Asp-Ser-Pro-C(Cyclised between Cys*-Cys*) (GRGDSP; N-terminal 1-adamantaneacetyl-Cys, C-terminal Cys; cyclised Cys-Cys; printed: Gly-Arg-Gly-Asp-Ser-Pro-)
[1]; inhibitor present during SPC contact with ABME formed by activating peptide
  hematopoietic colony numbers in presence of inhibitory peptide: colony numbers decreased in an inhibitor dose dependent manner

## NC(=O)c1cccc(N)c1 [3 Amino Benzamide, reference compound]
[2]
  colony/blood cell formation after priming SPC: improved colony/blood cell formation
[2]; SPC treated to inhibit Poly(ADP-ribose) Polymerase, FIG. 9
  number of hematopoietic colonies formed from treated SPC: synergistically increasing the number of hematopoietic colonies formed

## O=C(O)CN(CC(=O)O)c1ccc(Br)cc1OCCOc1cc(Br)ccc1N(CC(=O)O)CC(=O)O [DiBromo BAPTA, DiBromo derivative of Ca^++ chelator BAPTA, reference compound]
[3]; 5 micromolar for one hour, then TGFβ1 10 ng ml-1 18 hours, vs TGFβ1 alone, FIG. 8b
  proportion of myeloid and erythroid cells: significant difference in the proportion of myeloid and erythroid cell population

## CC(C)[C@H]1C(=O)N[C@H](CO)Cc2c[nH]c3cccc(c23)N1C [chemical agent 1, (—) Indolactam V, reference compound]
[4]; MNC exposed to mesenchymal cells contacted with chemical agent, (A) = untreated mesenchymal cells
  colonies of cells relative to (A): at least 4 times

## Biotin-Ser-Gly-Ser-Gly-Cys*-Asn-Pro-Arg-Gly-Asp (Tyr-OMe)Arg-Cys*Lys (cyclised between C*-C*)
[1]; 10 microgram ml^-1, 18 hours, CD34+ SPC 1 hour, HCFA 12-14 days
  hematopoietic colonies formed by ABME (activating peptide): significantly more number of hematopoietic colonies

## HuFGF-2
[3]; 10 ngml^-1, 18 hours, HCFA 14 days, FIG. 8a
  mature lymphoid and myeloid cells formed: more of lymphoid cells were produced
[4]; 1-25 nano gram.ml^-1, mesenchymal cells contacted 8-24 hours
  efficiency of ABME created: equally efficient ABME
[4]; lineage specific colony formation assay, FIG. 3A, vs control without biological agent
  colony formation along lineages GEMM, BFU-E and GM: uniformly stimulated
[4]; used separately
  potency in creating ABME from mesenchymal cells: nearly equipotent

## IGF-1: priming agent activating IGF-I receptor signals
[2]
  colony/blood cell formation after priming SPC: improved colony/blood cell formation

## IGF-II: priming agent, Mannose6-phosphate/IGF-II receptor
[2]
  colony/blood cell formation after priming SPC: improved colony/blood cell formation

## Latency Associated peptide of human TGF beta1.
[2]
  colony/blood cell formation after priming SPC: improved colony/blood cell formation
